We go through 20 compounds from ChEMBL document CHEMBL1150408, “Synthesis, induced-fit docking investigations, and in vitro aldose reductase inhibitory activity of non-carboxylic acid containing 2,4-thiazolidinedione derivatives” (Bioorg Med Chem, 2008).

Data set [1] concerns the target Aldo-keto reductase family 1 member B1 (Bos taurus) (UniProt P16116). The experiment in a line: Inhibition of bovine lens ALR2 at 12.5 uM assessed as reduction of D,L-glyceraldehyde by spectrophotometry. In kind it is tissue-based. The note with it: Lens of camera-type eye.
Data set [2] has as its target Aldo-keto reductase family 1 member B1 (Bos taurus, UniProt P16116). Put plainly: Inhibition of bovine lens ALR2 assessed as reduction of D,L-glyceraldehyde by spectrophotometry. Also on record: species or system Lens of camera-type eye.
Data set [3] has as its target Aldose reductase (Bos taurus). Put plainly: Inhibition of ALR2.
The target of data set [4] is Aldo-keto reductase family 1 member B1 (Bos taurus) (UniProt P16116). Put plainly: Inhibition of bovine lens ALR2 at 25 uM assessed as reduction of D,L-glyceraldehyde by spectrophotometry. The settings on record: Lens of camera-type eye.
Data set [5] in a line: Dissociation constant, pKa of the compound. In kind it is physicochemical.

As for `COc1ccc(/C=C2\SC(=O)N(CC(N)=O)C2=O)cc1`, in data set [1], the inhibition (commonly the relative decrease from the control value, in per cent) is 0%.
With `NC(=O)CN1C(=O)S/C(=C\c2ccc(O)cc2)C1=O`, the IC50 – broadly, the concentration needed to halve the response being measured – in data set [2] was 6.52 µM.
As for `NC(=O)CN1C(=O)S/C(=C\c2ccc(Oc3ccccc3)cc2)C1=O`, the inhibition in data set [1] was 0%.
The same measure, in the same setting: for `NC(=O)CN1C(=O)S/C(=C\c2cccc3ccccc23)C1=O` the value was 32%.
As to `O=C(CN1C(=O)S/C(=C\c2ccc(Oc3ccccc3)cc2)C1=O)NO`, the IC50 in data set [2] worked out at 3.67 µM.
Take `NC(=O)CN1C(=O)S/C(=C\c2cccc(Oc3ccccc3)c2)C1=O`: in data set [1], the inhibition was determined as 8%.
As for `O=C(O)CN1C(=O)S/C(=C\c2ccc(O)cc2)C1=O`, in data set [3], the half-maximal inhibitory concentration (IC50) stood at 0.15 µM.
On to `COc1cccc(/C=C2\SC(=O)N(CC(N)=O)C2=O)c1`, for which the inhibition in data set [1] was 10%.
In the case of `COc1cc(/C=C2\SC(=O)N(CC(N)=O)C2=O)ccc1O`, the inhibition in data set [1] worked out at 31%.
For the compound `O=C(CN1C(=O)S/C(=C\c2ccc(-c3ccccc3)cc2)C1=O)NO`, the IC50 in data set [2] is 20.3 µM.
Regarding `NC(=O)CN1C(=O)S/C(=C\c2ccc3ccccc3c2)C1=O`, in data set [1], the inhibition was determined as 3%.
On to `O=C(CN1C(=O)S/C(=C\c2ccc(OCc3ccccc3)cc2)C1=O)NO`, for which the IC50 in data set [2] amounted to 7.34 µM.
Take `O=C(CN1C(=O)S/C(=C\c2ccc3ccccc3c2)C1=O)NO`: the inhibition in data set [4] amounted to 39%.
For the compound `COc1ccc(/C=C2\SC(=O)N(CC(N)=O)C2=O)cc1O`, the inhibition in data set [1] worked out at 0%.
With `O=C(CN1C(=O)S/C(=C\c2cccc3ccccc23)C1=O)NO`, the IC50 in data set [2] came out at 4.2 µM.
As for `NC(=O)CN1C(=O)S/C(=C\c2cccc(O)c2)C1=O`, the inhibition in data set [1] was 16%.
Regarding `NC(=O)CN1C(=O)S/C(=C\c2ccc(-c3ccccc3)cc2)C1=O`, in data set [1], the inhibition was found to be 18%.
As for `O=C1NC(=O)[C@@]2(CCOc3ccc(F)cc32)N1` [SORBINIL], the pKa (in general, the pH at which an ionisable group is half protonated) in data set [5] is 8.
As to `O=C(CN1C(=O)S/C(=C\c2cccc(Oc3ccccc3)c2)C1=O)NO`, in data set [2], the IC50 came out at 12.7 µM.
Turning to `O=C(CN1C(=O)S/C(=C\c2ccc(O)cc2)C1=O)NO`, in data set [2], the IC50 turned out to be 1.79 µM.
